Data on eight compounds can be found in patent US9918991B2, “Topical antimicrobial compositions and methods of using same” (Hydromer, Inc., priority 2010, dated 2018).

In one experiment the test system is fungi. The experiment is described as follows: Fungi growth inhibition on the hoof (Test Method MCR 3.0 with actual hoof material). It is filed as cell-based. The settings on record: aqueous solution 0.25 to 0.5%. The source says:
(§1) Comparative Antimicrobial Testing of Example 4 with Cosmetic Dyes According to Test Method MCR 3.0 with Actual Hoof Material

The test system of experiment [1] is bacteria. As to the kind of experiment: Bacteria growth inhibition on the hoof (Test Method MCR 3.0 with actual hoof material). It counts as cell-based. The settings on record: aqueous solution 0.25 to 0.5%.
From the text: as §1

Experiment [2] concerns bacteria. The experiment is described as follows: Growth / inhibition activity on a hoof surface. It counts as cell-based. The conditions noted are these: 0.2% alone.
The next experiment deals with T. mentagrophytes. The experiment is described as follows: Hoof samples submerged, washed to simulate leaching, overlaid with T. mentagrophytes agar. It counts as cell-based. The settings on record: 10 wt. % solution; hoof submerged 15 seconds, washed two hours, 3 and 6 days. The protocol: Hoof samples were submerged for 15 seconds in (1) the composition of the invention (i.e., 4:1 of cosmetic dye:Phenoxyethanol, total amount about 0.3 wt. %); (2.1) a 10 wt. % copper sulfate (2.2) a 10 wt. % zinc sulfate solution; (3) untreated as a control. The samples were then washed for two hours to simulate leaching. The samples were then placed into melted PA agar to solidify. Melted agar containing 10E5 CFU/ml of T. mentagrophytes was then added and incubated at room temperature for 3 and 6 days.
Hoof samples were submerged for 15 seconds in (1) the composition of the invention (i.e., 4:1 of antimicrobial dye:Phenoxyethanol, total amount about 0.21 wt. % or 0.3 wt. %); (2) a 10 wt. % copper sulfate or 10 wt. % zinc sulfate solution; or (3) untreated as a control. The samples were then washed for two hours to simulate leaching. The samples were then placed into melted PA agar to solidify. Melted agar containing 10E5 CFU/ml of T. mentagrophytes was then added and incubated at room temperature for 3 and 6 days.

The nature of experiment [3]: Influence of hoof bath contamination by dirt and manure on effectiveness.
Experiment [4] concerns Arcanobacterium pyogenes (ATCC#9731 and ATCC#19411). The experiment is described as follows: MIC Test against Arcanobacterium pyogenes under anaerobic conditions (TOXIKON). It is filed as cell-based. The protocol: MIC Test of example 4 against Arcanobacterium pyogenes (ATCC#9731 and ATCC#19411) under anaerobic conditions were conducted by the TOXIKON.
Under the same conditions as mentioned in Example 5 conducted by TOXIKON the MIC of a 10% copper sulfate solution (commonly used in hoof baths worldwide) was determined.

Experiment [5] deals with digital dermatitis lesion (DDL). As to the kind of experiment: Footbath study in a large commercial dairy farm, digital dermatitis lesions. It is filed as in vivo, cows. The settings on record: study 1; 5% solution, twice weekly; mixed logistic regression.
Procedure: The study was conducted in a large commercial dairy farm. […] The adjusted odds of digital dermatitis lesion (DDL) throughout the study period were analyzed by mixed logistic regression model.

A value given as a limit tells only on which side of the number the result lay.

For `CN(C)c1ccc(C(=C2C=CC(=[N+](C)C)C=C2)c2ccc(N(C)C)cc2)cc1.[Cl-]` [Gentian Violet, N-[4[Bis[4-(dimethylamino)-phenyl]methylene]-2,5-cyclohexadien-1-ylidene]-N-methyl-methanaminium chloride], the “fungi growth inhibition on the hoof” value in the experiment with fungi came to 80%. Further, the “bacteria growth inhibition on the hoof” value with bacteria [1] was determined as 90%.
On the same counts, the results for `CN(C)c1ccc2nc3ccc(=[N+](C)C)cc-3sc2c1` [Methylene Blue] are 50% and 60%.
With `Cc1cc2nc3ccc(N(C)C)cc3[s+]c2cc1N.[Cl-]` [Toluidine Blue], the “fungi growth inhibition on the hoof” value with fungi is reported as 50%. In the experiment with bacteria [1], the “bacteria growth inhibition on the hoof” value is 80%. In addition, in the experiment on bacteria [2], the “growth on a hoof surface” value was “bacterial growth”.
On to `O=S(=O)([O-])[O-].[Cu+2]` [copper sulfate], for which the microbial growth entry in the experiment on T. mentagrophytes is “intense microbial growth”. Also, in experiment [3] (at 2.5% and 5% concentrations, FIG. 1), the “loses effectiveness after contamination” value was ≤ 4 h. In addition, the “MIC (concentration giving about 100% reduction / kill)” value in experiment [4] (anaerobic conditions, both strains) is recorded as “at least 0.078%”. Moreover, the kill rate in experiment [4] (concentration at least 0.078%, both strains) is reported as ~100%. The “required concentration in comparison to a solution according to example 4” value in experiment [4] (to control Arcanobacterium pyogenes) was “at least 8 times”.
For the compound `C=O` [formalin], in experiment [5], the “odds of DDL compared with the Dragonhyde group” value is 1.36 times higher.
For `O=CCCCC=O` [glutaraldehyde], the “loses effectiveness after contamination” value in experiment [3] (at 2% concentration, FIG. 3) is ≤ 24 h.
For `O=S(=O)([O-])[O-].[Zn+2]` [zinc sulfate], the microbial growth entry in the experiment with T. mentagrophytes was “intense microbial growth”.
With benzalkonium chloride, the “loses effectiveness after contamination” value in experiment [3] (at 1% concentration, FIG. 4) was ≤ 24 h.
